Results taken from PMC12108457, “Trimethylamine N-Oxide (TMAO) Acts as Inhibitor of Endothelial Nitric Oxide Synthase (eNOS) and Hampers NO Production and Acetylcholine-Mediated Vasorelaxation in Rat Aortas” (Antioxidants, 2025).
Each block holds one molecule with its values, some of them ahead of it.

Assays:
Format in all cases: cell-based
[1] = target: T1, endothelial nitric oxide synthase (eNOS) (Homo sapiens, UniProt P29474); assay: NO (DAF-FM) and ROS production in HUVECs at […] L-NAME
T1 construct: gene NOS3
T1 sequence (P29474 2-1203): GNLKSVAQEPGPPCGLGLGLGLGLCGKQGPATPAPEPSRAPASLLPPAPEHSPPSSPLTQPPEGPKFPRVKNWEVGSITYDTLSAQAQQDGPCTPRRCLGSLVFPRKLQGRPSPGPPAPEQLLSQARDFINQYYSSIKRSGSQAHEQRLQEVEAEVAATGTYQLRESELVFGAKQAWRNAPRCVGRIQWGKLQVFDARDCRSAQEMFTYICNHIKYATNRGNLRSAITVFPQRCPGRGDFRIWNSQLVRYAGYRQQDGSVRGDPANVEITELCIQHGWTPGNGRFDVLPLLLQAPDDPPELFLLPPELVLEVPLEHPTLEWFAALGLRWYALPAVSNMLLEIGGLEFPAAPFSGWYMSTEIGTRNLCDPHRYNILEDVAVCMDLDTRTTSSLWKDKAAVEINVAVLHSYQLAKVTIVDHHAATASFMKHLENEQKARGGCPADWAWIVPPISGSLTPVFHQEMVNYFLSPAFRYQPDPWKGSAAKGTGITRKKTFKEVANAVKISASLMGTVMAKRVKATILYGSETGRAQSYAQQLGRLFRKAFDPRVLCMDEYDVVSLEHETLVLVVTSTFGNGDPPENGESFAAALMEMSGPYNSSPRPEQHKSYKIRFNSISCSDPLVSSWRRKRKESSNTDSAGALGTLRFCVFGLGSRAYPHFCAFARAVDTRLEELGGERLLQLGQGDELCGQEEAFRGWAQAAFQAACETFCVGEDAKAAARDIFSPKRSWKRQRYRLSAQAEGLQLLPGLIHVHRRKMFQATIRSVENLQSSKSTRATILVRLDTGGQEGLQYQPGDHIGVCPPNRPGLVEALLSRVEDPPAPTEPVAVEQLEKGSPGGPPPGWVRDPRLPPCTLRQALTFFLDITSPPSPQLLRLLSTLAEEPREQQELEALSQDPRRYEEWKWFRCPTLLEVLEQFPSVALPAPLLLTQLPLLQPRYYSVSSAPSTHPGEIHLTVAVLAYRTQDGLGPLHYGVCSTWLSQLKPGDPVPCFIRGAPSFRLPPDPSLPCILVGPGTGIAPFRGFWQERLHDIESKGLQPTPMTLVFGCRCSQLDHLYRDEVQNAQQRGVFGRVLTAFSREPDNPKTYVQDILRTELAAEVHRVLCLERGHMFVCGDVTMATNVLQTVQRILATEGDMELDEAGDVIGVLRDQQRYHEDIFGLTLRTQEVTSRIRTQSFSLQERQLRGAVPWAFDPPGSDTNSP

[2] = target: T1, endothelial nitric oxide synthase (eNOS); assay: conversion of deuterated L-arginine to L-citrulline in HUVECs by MS; […] L-arginine rescues NO production
[3] = target: T1, endothelial nitric oxide synthase (eNOS); assay: NO production (DAF-FM) in HUVECs with L-arginine competition; deuterated L-arginine to L-citrulline conversion by MS

Structure (SMILES): COC(=O)[C@@H](N)CCCNC(N)=N[N+](=O)[O-] [L-NAME]
- NO (DAF-FM) and ROS production in HUVECs at 1 mM L-NAME [1]: NO production is indeed eNOS-dependent, as proven by the eNOS inhibitor L-NAME, whose presence strongly abolishes NO production

Structure (SMILES): N=C(N)NCCC[C@H](N)C(=O)O [L-arginine]
- conversion of deuterated L-arginine to L-citrulline in HUVECs by MS; 20 mM L-arg [2]: we measured the rate of L-arginine’s conversion to L-citrulline by using stable isotope labeling and mass spectrometry

- EC50 [3]: 2500 ± 300 nM
Structure (SMILES): C[N+](C)(C)[O-] [Trimethylamine N-oxide]
